The source of these data is ChEMBL document CHEMBL5143567, “Dose Number as a Tool to Guide Lead Optimization for Orally Bioavailable Compounds in Drug Discovery” (J Med Chem, 2022).

The structures appear in SMILES notation. In brackets after ≈: the same amount, converted by molar mass.

As a reminder, the solubility is the concentration that dissolves in the medium under given conditions.

The nature of one series: physchem. As to conditions: phosphate buffer, pH 6.8.
Series [1] can be described thus: Permeability in human Caco-2 cells. The series is classed as ADME, cell-based. The settings on record: read-out: permeability. A general note: Caco-2 cells form a polarised layer with tight junctions and transporters.
Series [2] can be described thus: Aqueous solubility of the compound at pH 1.8. The series is classed as physicochemical. The settings on record: buffer.
Series [3] in a line: Permeability in MDCK-II cells. The series is classed as ADME, cell-based, Canis lupus familiaris. The settings on record: dog, read-out: permeability.
Series [4] is described as follows: Aqueous solubility of the compound at pH 5. As to conditions: buffer. The series is classed as physicochemical.
Series [5] can be described thus: Aqueous solubility of the compound. As to conditions: buffer. The series is classed as physicochemical.
A short description of series [6]: Permeability in pig LLC-PK1 cells. The series is classed as ADME, cell-based, Sus scrofa. The settings on record: read-out: permeability.
Series [7] in a line: Aqueous solubility of the compound in FaSSIF. The series is classed as physicochemical.
Series [8] in a line: Aqueous solubility of the compound in buffer. The series is classed as physicochemical.
Series [9] in a line: Permeability in rat jejunum. The series is classed as ADME, tissue-based. As to conditions: read-out: permeability.
Series [10] in a line: Aqueous solubility of the compound in FaSSIF at pH 6.5 measured by dissolution tester. Format: physicochemical.

Description for physchem: Aqueous solubility of the compound in phosphate buffer at pH 6.8 measured after 72 hrs by UV-Vis spectrophotometer

`CCC[C@H](NC(=O)[C@@H]1[C@H]2CCC[C@H]2CN1C(=O)[C@@H](NC(=O)[C@@H](NC(=O)c1cnccn1)C1CCCCC1)C(C)(C)C)C(=O)C(=O)NC1CC1`: in “physchem”, the solubility at 72 h came to 4.7 µg/mL (≈ 6.91 µM). Further, the Papp in series [1] was above 4.4 ×10⁻⁶ cm/s.

As to `COC(=O)N[C@H](C(=O)N1CCC[C@H]1c1nc(-c2ccc3c(c2)O[C@@H](c2ccccc2)n2c-3cc3cc(-c4c[nH]c([C@@H]5CCCN5C(=O)[C@@H](NC(=O)OC)C(C)C)n4)ccc32)c[nH]1)C(C)C` [ELBASVIR], the figures for the solubility in series [2] and in [4] were above 5 µg/mL and 50 µg/mL (≈ 56.7 µM), respectively. Besides, in [3], the Papp is 0.8 ×10⁻⁶ cm/s. With `Cc1cc(C#N)cc(C)c1Oc1nc(Nc2ccc(C#N)cc2)nc(N)c1Br` [ETRAVIRINE], the solubility in [5] is below 1 µg/mL.

With `C=C[C@@H]1C[C@]1(NC(=O)[C@@H]1C[C@@H]2CN1C(=O)[C@H](C(C)(C)C)NC(=O)O[C@@H]1C[C@H]1CCCCCc1nc3ccc(OC)cc3nc1O2)C(=O)NS(=O)(=O)C1CC1` [GRAZOPREVIR ANHYDROUS], the Papp in series [6] came to 19 ×10⁻⁶ cm/s. This compound gave a solubility in [7] below 7 µg/mL. Turning to `CC(C)(C)c1cc(C(C)(C)C)c(NC(=O)c2c[nH]c3ccccc3c2=O)cc1O` [IVACAFTOR], the solubility in [8] is below 0.05 µg/mL. `COC(=O)N[C@H](C(=O)N1CCC[C@H]1c1nc2cc([C@H]3CC[C@H](c4cc5nc([C@@H]6CCCN6C(=O)[C@@H](NC(=O)OC)[C@@H](C)OC)[nH]c5cc4F)N3c3cc(F)c(N4CCC(c5ccc(F)cc5)CC4)c(F)c3)c(F)cc2[nH]1)[C@@H](C)OC` [PIBRENTASVIR]: the Papp in series [3] is below 1 ×10⁻⁶ cm/s.

`CC(C)c1nc(CN(C)C(=O)N[C@H](C(=O)N[C@@H](Cc2ccccc2)C[C@H](O)[C@H](Cc2ccccc2)NC(=O)OCc2cncs2)C(C)C)cs1` [RITONAVIR]: the Papp in [1] was 20 ×10⁻⁶ cm/s. Consider `Cc1ccc(-n2nccn2)c(C(=O)N2CCN(c3nc4cc(Cl)ccc4o3)CC[C@H]2C)c1` [SUVOREXANT], for which, in series [6], the Papp amounted to 22.8 ×10⁻⁶ cm/s. In addition, in series [7], the solubility was 9 µg/mL (≈ 20 µM). `C=CC[C@@H]1/C=C(\C)C[C@H](C)C[C@H](OC)[C@H]2O[C@@](O)(C(=O)C(=O)N3CCCC[C@H]3C(=O)O[C@H](/C(C)=C/[C@@H]3CC[C@@H](O)[C@H](OC)C3)[C@H](C)[C@@H](O)CC1=O)[C@H](C)C[C@@H]2OC` [TACROLIMUS ANHYDROUS] displayed a solubility in series [5] of 1.3 µg/mL (≈ 1.62 µM). In addition, the Papp in [9] came to 18 ×10⁻⁶ cm/s.

Regarding `CCCS(=O)(=O)Nc1ccc(F)c(C(=O)c2c[nH]c3ncc(-c4ccc(Cl)cc4)cc23)c1F` [VEMURAFENIB], the solubility in series [10] was 2 µg/mL (≈ 4.08 µM). In addition, in series [1], the Papp was determined as 2.9 ×10⁻⁶ cm/s.
